Measurements taken from patent US20230096601A1, “BORTEZOMIB COMPOSITIONS” (MAIA Pharmaceuticals, Inc., priority 2021, published 2023).
Values after ≈ are worked out from the molar mass of the structure shown.

Experiments:
[1] = Accelerated / room temperature stability testing at 25° C./60% RH, HPLC assay and impurities (percent of nominal bortezomib concentration); assay type: physicochemical
Description: The compositions described herein are storage stable aqueous liquid ready-to-use compositions. The degradation of the active ingredient, as well as the formation of various impurities is controlled by the composition to a minimal level. Stability testing was performed at the long-term stability condition (2-8° C.) as well as the accelerated stability condition (25±2° C./60±5% RH) for refrigerated products. At each time point, the bortezomib content (assay) and the impurity profile was determined using an HPLC procedure, and a bortezomib reference standard. The HPLC method utilizes a reverse phase column with an aqueous formic acid/acetonitrile and aqueous formic acid/methanol mobile phase gradient and UV/PDA detector at a wavelength of about 270 nm.
The effect of pH on bortezomib formulations using a low concentration of DMSO in water (4.5% v/v DMSO for the 2.5 mg/mL strength and 1% v/v DMSO for the 1 mg/mL strength) was then assessed. In each case, the bortezomib was first fully dissolved in the batch quantity of DMSO to form a concentrated premix solution, which was then added to water, and the pH adjusted with sodium hydroxide and/or hydrochloric acid to pH ranging from 4 to 8.5. […] Because oxidative degradation is a significant degradation pathway for bortezomib, filled vials were overlayed with nitrogen. These batches were placed on stability at accelerated (25° C.) and long-term storage conditions (2-8° C.). […] Although the 2.5 mg/mL formulations were not physically stable at 25° C., chemical stability, based on analysis after 2 months at 25° C., stability was poor at pH 4 and pH 8.5 for both strengths, with good stability being observed at pH 5.5 for the 2.5 mg/mL strength and pH 5.5 and 7 for the 1 mg/mL strength.
The preparation of the concentrated bortezomib premix is performed. The batch quantity of bortezomib is added to a suitable glass container. The batch quantity of the non-aqueous solvent is then added to the bortezomib, and mixed until the bortezomib is completely dissolved. The initial aqueous component is separately prepared by dissolving the other excipients such as buffer, optionally a solubilizer and/or stabilizer, or a tonicity adjuster, in water for injection, which optionally has been degassed by sparging nitrogen through it and adjusting to the desired pH using appropriate pH adjusting agent, if needed. The aqueous component is typically prepared at about double the corresponding concentration(s) in the final formulation; this was typically accomplished by dissolving the excipients in approximately half the batch volume of water. The bortezomib premix is then added to the (concentrated) aqueous component, and mixed. Water is then added to make up to about 80-90% of the batch volume and a final pH adjustment is performed to the target pH using appropriate pH adjusting agent, if needed. After final pH adjustment, the batch is made up to the target batch volume. The batch is then sterile filtered using a 0.2 micron filter, filled into (2-mL, or 3-mL, or 5-mL) USP Type I, optionally amber, glass vials, stoppered with (13-mm or 20-mm) fluoropolymer-coated chlorobutyl rubber stoppers, and sealed with (13-mm or 20-mm) aluminum caps. The fill volume used is typically 3.5 mL for the 1 mg/mL formulations or 1.4 mL for the 2.5 mg/mL formulations (to contain 3.5 mg bortezomib per vial). Because bortezomib is known to be oxidation and light sensitive, compounding and filling is typically carried out in a glove box equilibrated with nitrogen at various residual oxygen levels (typically less than 5%). Light exposure is minimized.
The stability testing under accelerated conditions (25° C. and 60% relative humidity for at least 6 months) of these formulations is presented in Table 6.

[2] = Solubility by HPLC, bortezomib premixed with nonaqueous solvent before addition to aqueous component; assay type: physicochemical; details: aqueous with cosolvent or surfactant or cyclodextrin, kinetic from dmso stock; premix in non-aqueous solvent, aqueous system with 25 mg/mL mannitol
Description: This example was carried out to determine the solubility of bortezomib in particular solvents and solvent systems when the bortezomib is first dissolved in (the batch quantity) of a non-aqueous solvent to form a concentrated solution (“premix”), prior to adding the premix to the aqueous component(s). A bortezomib sample (between 10 and 50 mg) was placed in a suitable glass container and added to a defined volume of a nonaqueous solvent system (if used) as defined below in Table 4, to create a concentrated premix. The premix was subsequently added to enough buffered aqueous solvent to make a final volume of 5 mL, as defined below in Table 4.
The resulting formulation was allowed to equilibrate for 24 hours at room temperature, protected from light. Solubility was determined by filtration through a 0.45 micron filter, and assay of the filtrate for bortezomib content using an HPLC procedure, and a bortezomib standard. One mL aliquots of the filtrate (saturated solution) were subjected to three freeze-thaw cycles of 24 hours at −20° C. and 24 hours at 25° C. each, with visual examination after each cycle. Absence of precipitation after the three cycles was used as an index of physical stability of the formulation upon long-term storage.

[3] = cited from earlier work
[4] = Formulation trials with low concentrations of benzyl alcohol / DMSO in water: visual dissolution and physical stability; assay type: physicochemical; details: benzyl alcohol (2% v/v), DMSO (5% v/v) or combination added to bortezomib, then water; mixing >3 hours
Description: Initial formulation experiments with low concentrations of various non-aqueous solvents were conducted targeting a bortezomib concentration of 2.5 mg/mL. Attempts to solubilize bortezomib were conducted using low concentrations of benzyl alcohol (2% v/v), or dimethyl sulfoxide (5% v/v), or a combination of these solvents. […] For these formulations, the non-aqueous solvent was added to bortezomib to dissolve it, followed by addition of water to the bortezomib-solvent mixture.
Various concentrations of DMSO were explored as the non-aqueous component of the formulation (2% v/v to 5% v/v in water). Bortezomib was first completely dissolved in the batch volume of DMSO to form a concentrated “premix” solution prior to making up the batch to the target concentration (2.5 mg/mL) with water. This was done to facilitate the subsequent dissolution of bortezomib in the aqueous component.

physchem = details: thermodynamic from solid
Description: The solubility of bortezomib in select non-aqueous solvents was determined to understand if any of these solvents may be useful (as a co-solvent with water) at low concentrations in the final formulation.
Approximately 25 mg of bortezomib was added to a suitable container. An initial volume of 0.5 mL of the non-aqueous solvent was added and the mixture stirred for 5 minutes. The appearance of the solution was recorded. […] If the bortezomib was not fully dissolved, additional volume of solvents were added in 0.25 mL increments with mixing for 5 minutes after each addition, and recording the appearance of the solution, until the bortezomib was fully dissolved, up to a total volume of 10 mL.

[5] = Equilibrium solubility by HPLC, bortezomib added directly to solvent system; assay type: physicochemical; details: buffered aqueous solutions, aqueous buffer, thermodynamic from solid; pH range of 4 to 7
Description: Because pH appeared to influence chemical stability, sodium acetate or sodium phosphate were included in these matrixes as buffers, and the effect of pH on solubility was also assessed.
The components were mixed (by shaking the glass container), and the mixture was observed. […] The suspension was allowed to equilibrate for 24 hours at room temperature while being protected from light. After the incubation, the solution phase was removed from the container into a clean vial by filtration through a 0.45 micron syringe filter, and the filtrate was assayed for bortezomib content using an HPLC procedure, and a bortezomib standard.

Structure (SMILES): CC(C)C[C@H](NC(=O)[C@H](Cc1ccccc1)NC(=O)c1cnccn1)B(O)O [Bortezomib, [(1R)-3-methyl-1-[[(2S)-1-oxo-3-phenyl-2-[(pyrazinylcarbonyl)amino]propyl]amino]butyl] boronic acid]
- Total Impurities after 2 months at 25° C. (%) ([1]; 1 mg/mL bortezomib, 1% (v/v) DMSO in water, pH 4): 7.83%
- Total Impurities after 2 months at 25° C. (%) ([1]; 1 mg/mL bortezomib, 1% (v/v) DMSO in water, pH 5.5): 0.52%
- Total Impurities after 2 months at 25° C. (%) ([1]; 1 mg/mL bortezomib, 1% (v/v) DMSO in water, pH 7): 1.18%
- Total Impurities after 2 months at 25° C. (%) ([1]; 1 mg/mL bortezomib, 1% (v/v) DMSO in water, pH 8.5): 12.48%
- Total Impurities after 2 months at 25° C. (%) ([1]; 2.5 mg/mL bortezomib, […] (v/v) DMSO in water, pH 4): 13.71%
- Total Impurities after 2 months at 25° C. (%) ([1]; 2.5 mg/mL bortezomib, […] (v/v) DMSO in water, pH 5.5): 1.07%
- Total Impurities after 2 months at 25° C. (%) ([1]; 2.5 mg/mL bortezomib, […] (v/v) DMSO in water, pH 7): 5.91%
- Total Impurities after 2 months at 25° C. (%) ([1]; 2.5 mg/mL bortezomib, […] (v/v) DMSO in water, pH 8.5): 31.59%
- solubility at 24 h [2]: > 4000 µg/mL
- solubility of bortezomib in water or buffered aqueous solutions reported by the suppliers [3]: < 100 µg/mL
- dissolution at target 2.5 mg/mL [4]: precipitated after addition of water
- solubility at 5 min (physchem; N-methyl pyrrolidone (NMP), organic solvent or mixture): > 25000 µg/mL
- solubility at 5 min (physchem; benzyl alcohol, organic solvent or mixture): > 50000 µg/mL
- solubility at 5 min (physchem; dimethyl sulfoxide (DMSO), organic solvent or mixture): > 50000 µg/mL
- solubility at 5 min (physchem; ethanol, organic solvent or mixture): ~4500 µg/mL (≈ 11.7 mM)
- solubility at 5 min (physchem; glycerol, organic solvent or mixture): < 2500 µg/mL
- solubility at 5 min (physchem; polyethylene glycol 400, organic solvent or mixture): < 2500 µg/mL
- solubility at 5 min (physchem; propylene glycol, organic solvent or mixture): ~3600 µg/mL (≈ 9.37 mM)
- solubility at 24 h [5]: < 500 µg/mL
